Reference: patent US11396512B2, “CDK2/4/6 inhibitors” (Pfizer Inc., priority 2016, dated 2022)

Legend:
CDK6/Cyclin D1 = CDK6/Cyclin D1 (Homo sapiens (Human), UniProt Q00534); experiment: biochemical
[1] = test system: HCC1806 mouse tumor xenograft; experiment: HCC1806 tumor model (mouse xenograft); format: in vivo; conditions: NU/NU female mice, 30 mpk PO BID, 50 mpk PO BID and 75 mpk PO BID, 14 days
Method: Source: HCC1806 (#CRL 2335, ATCC, Manassas, Va.)
The HCC1806 tumor cell line was cultured in RPM11640 media supplemented with 10% Fetal Bovine Serum (FBS). To establish a HCC1806 xenograft model, 5×10^6 cells per mouse were implanted subcutaneously into right hind flank NU/NU female mice. Cells were suspended in 50% Cultrex Basement Membrane Extract and 50% RPMI 1640 media serum free media prior to implantation.
Animals were randomized 7 days after cells implantation with each group consisting of 13 mice. Treatment began when tumors reached 100 mm^3 to 170 mm^3 in size on Day 7. Test compounds were prepared in 0.1% Tween, 0.5% Methyl cellulose in water and dosed PO at 30, 50, and 75 mg/kg as a suspension BID for 14 days. Mice receiving no drugs were given vehicle BID for 14 days. Tumor volumes were measured twice a week with an electric caliper, with tumor volumes calculated using Length×Width×Width/2 formula. Animal weights were recorded twice weekly.

CDK6/Cyclin D1, sequence (Q00534 whole entry): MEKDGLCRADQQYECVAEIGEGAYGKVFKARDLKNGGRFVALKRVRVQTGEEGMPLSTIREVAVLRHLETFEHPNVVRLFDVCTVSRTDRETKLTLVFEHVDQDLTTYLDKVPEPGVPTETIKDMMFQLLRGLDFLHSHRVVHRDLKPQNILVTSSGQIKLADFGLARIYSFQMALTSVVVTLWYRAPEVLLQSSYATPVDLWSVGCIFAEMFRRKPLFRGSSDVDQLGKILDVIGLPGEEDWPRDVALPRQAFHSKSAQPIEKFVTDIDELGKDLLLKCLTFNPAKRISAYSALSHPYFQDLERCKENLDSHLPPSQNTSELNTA
CDK6/Cyclin D1, sequence (P24385 whole entry partner): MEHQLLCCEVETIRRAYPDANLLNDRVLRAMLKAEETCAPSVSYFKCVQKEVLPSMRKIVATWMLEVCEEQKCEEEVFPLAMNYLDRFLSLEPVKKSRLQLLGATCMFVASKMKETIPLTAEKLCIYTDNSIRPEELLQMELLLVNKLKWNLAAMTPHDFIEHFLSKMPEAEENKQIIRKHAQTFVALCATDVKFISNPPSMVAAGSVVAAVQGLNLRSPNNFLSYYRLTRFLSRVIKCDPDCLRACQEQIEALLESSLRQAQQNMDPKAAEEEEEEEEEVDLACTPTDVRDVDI

| Ki (CDK6/Cyclin D1) [nM] | SMILES | inhibition of tumor growth (mm^3) [1] |
| --- | --- | --- |
| 11.3 | C[C@]1(O)CCCC1n1c(=O)ccc2cnc(NC3CCN(S(=O)(=O)C(F)(F)F)CC3)nc21 (single isomer, unassigned) [Example 89] |  |
|  | C[C@@]1(O)CCC[C@H]1n1c(=O)ccc2cnc(NC3CCN(S(C)(=O)=O)CC3)nc21 [Example 2, 8-[(1R,2R)-2-hydroxy-2-methylcyclopentyl]-2-{[1-(methylsulfonyl)piperidin-4-yl]amino}pyrido[2,3-d]pyrimidin-7(8H)-one] | dose dependent inhibition of tumor growth |
